Values of other authors, collected in patent US12649758B2, “Industrial method for simultaneously preparing Stevia rebaudiana chlorogenic acid and stevioside” (Chenguang Biotech Group Co., Ltd., priority 2018, dated 2026).

Structure (SMILES): C=C1C[C@@]23CC[C@H]4[C@@](C)(CCC[C@@]4(C)C(=O)O[C@@H]4O[C@H](CO)[C@@H](O)[C@H](O)[C@H]4O)[C@@H]2CC[C@]1(O[C@@H]1O[C@H](CO)[C@@H](O)[C@H](O)[C@H]1O[C@@H]1O[C@H](CO)[C@@H](O)[C@H](O)[C@H]1O)C3 [Stevioside, stevioside]
- sweetness relative to sucrose: 300 to 500 times of sucrose
